Results on four compounds are retold here after the NIST ThermoML archive (doi:10.1021/je9004189).

For data set [1] the following is noted: 293.15 K, 101.33 kPa, Liquid.
The nature of data set [2]: refractive index (Na D-line) (dimensionless). Particulars: 293.15 K; 101.33 kPa; Liquid; Standard Abbe refractometry.

Numbers after ± are expanded uncertainties.

With `CO` [methanol], the mass density in data set [1] (Vibrating tube method) is recorded as 792 ± 1 kg/m3. Moreover, in data set [2], the refractive index is on record as 1.3301 ± 0.0007.

On to `c1ccccc1` [benzene], for which the mass density in data set [1] (Vibrating tube method) worked out at 879 ± 1 kg/m3. In data set [2], the refractive index is 1.5011 ± 0.0007.

With `CC(C)=O` [acetone], the mass density in data set [1] came out at 790 ± 1 kg/m3. Also, the refractive index in data set [2] was 1.359 ± 0.0007.

Regarding `CCO` [ethanol], the mass density in data set [1] (Vibrating tube method) amounted to 790 ± 1 kg/m3. In addition, the refractive index in data set [2] came out at 1.366 ± 0.0007.

As a reminder, the mass density is mass per unit of volume. A word on the refractive index: it is a measure of how strongly the sample bends light.
